Key:
[1] = Stability studies of Sorafenib tosylate form III (humidity/temperature storage); format: physicochemical; details: form III obtained from methanol solvate
Description: Stability studies of the free Sorafenib tosylate form III were already performed. These studies indicate that form III remained stable 3 months under accelerated conditions of ICH guideline (40° C.-70% RH) and less than 7 months at RT under 94% RH, while it remained stable at least 7 month at RT under 60% RH.
As the stability study of Sorafenib tosylate form III was performed with Sorafenib tosylate form III obtained from Sorafenib tosylate methanol solvate, only a minor difference in behavior could be possible with this new solid.

[2] = Stability study of Sorafenib hemi-tosylate monohydrate under four humidity/temperature conditions, XRPD; format: physicochemical
Description: Four different humidity/temperature conditions were selected for this study: • Humidity (60% RH) at room temperature, • High humidity (94% RH) at room temperature, • Accelerated conditions of ICH guidelines (40° C.-70% RH), • 80° C. under vacuum.
Karl-Fischer and DSC/TGA analyses confirmed that Sorafenib hemi-tosylate is a monohydrate (water content 3.9% for KF and 2.7% for TGA—3.1% calc. for a monohydrate). This form was previously characterized in WO2009/092070 but, as Karl-Fischer and TGA were not performed, the presence of water in this crystalline form was not mentioned. […] However, at 80° C. under vacuum, traces of SORAFENIB free base were detected after almost three months.

time form III remained stable ([1]; RT under 60% RH) | time form III remained stable ([1]; RT under 94% RH) | time form III remained stable ([1]; accelerated conditions of ICH guideline (40° C.-70% RH)) [months] | time remained stable ([2]; 60% RH at room temperature) | time remained stable ([2]; 70% RH at 40° C.) | time remained stable ([2]; 94% RH at room temperature) | crystalline changes by XRPD ([2]; after 119 days at 60% RH at room temperature) | crystalline changes by XRPD ([2]; after 119 days at 70% RH at 40° C.) | crystalline changes by XRPD ([2]; after 119 days at 94% RH at room temperature) | Compound | crystalline changes by XRPD ([2]; after 88 days at 80° C. under vacuum)
at least 7 month | less than 7 months | 3 |  |  |  |  |  |  | CNC(=O)c1cc(Oc2ccc(NC(=O)Nc3ccc(Cl)c(C(F)(F)F)c3)cc2)ccn1.Cc1ccc(S(=O)(=O)O)cc1 [Sorafenib tosylate form III, 4-[4-({[4-chloro-3-(trifluoromethyl)phenyl]carbamoyl}amino)phenoxy]-N-methylpyridine-2-carboxamide 4-methylbenzenesulfonate (1:1)] | 
 |  |  | at least four | at least four | at least four | No crystalline changes were detected | No crystalline changes were detected | No crystalline changes were detected | CNC(=O)c1cc(Oc2ccc(NC(=O)Nc3ccc(Cl)c(C(F)(F)F)c3)cc2)ccn1.Cc1ccc(S(=O)(=O)O)cc1 [Sorafenib hemi-tosylate] | traces of Sorafenib free base were observed

— patent US9738607B2, “Scalable process for the preparation of Sorafenib tosylate ethanol solvate and Sorafenib tosylate form III” (F.I.S.—FABBRICA ITALIANA SINTETICI S.P.A, priority 2015, dated 2017)
